{"source": "patent US7423015B1", "about": "“Antihelminthic drugs as a treatment for hyperproliferative diseases” (Board of Regents, The University of Texas System, priority 2001, dated 2008)", "key": {"A549": {"test_system": "A549", "assay": "Proliferation assay, 50% growth inhibitory concentration", "type": "cell-based", "settings": "Homo sapiens, 24 h; A549, p53 positive; after 1 day of exposure", "protocol": "(§1) All cell lines were grown in RPMI 1640 medium supplemented with 5% fetal bovine serum and 5% CO2. All experiments were done when the cells were 70% confluent. For cell growth measurements, 5×10^4 cells were plated in each well of six-well plates. Control and BZ-treated (0.05 μg/ml) cells were trypsinized and counted using a hemocytometer. Experiments were done in triplicate and the mean and standard deviation were determined by standard methods.\n(§2) Studies to determine the IC50 for fenbendazole and mebendazole were performed on a panel of six different human cancer cell lines: two carrying the wild-type p53 gene and actively expressing the p53 protein, (H460 and A549); one marked by homozymes deletion of the p53 gene and lacking p53 gene expression (H358); two expressing mutant p53 (H322 and H596); and one in which wild-type p53 is inactivated by human papilloma virus E6 protein. […] A dose of 166 nM (˜[…]) was chosen for these studies because it had been shown previously that this concentration was sufficient to induce wild-type p53 after 24 h of treatment."}, "H322": {"test_system": "H322", "assay": "Proliferation assay, 50% growth inhibitory concentration", "type": "cell-based", "settings": "Homo sapiens, NCI-H322, 24 h; H322, p53 mutated; after 1 day of exposure", "protocol": "as §1, §2"}, "H358": {"test_system": "H358", "assay": "Proliferation assay, 50% growth inhibitory concentration", "type": "cell-based", "settings": "Homo sapiens, NCI-H358, 24 h; H358, p53 deleted; after 1 day of exposure", "protocol": "as §1, §2"}, "H460": {"test_system": "H460", "assay": "Proliferation assay, 50% growth inhibitory concentration", "type": "cell-based", "settings": "Homo sapiens, NCI-H460, 24 h; H460, p53 positive; inhibit growth by 50% after 1 day of exposure", "protocol": "as §1, §2"}, "H596": {"test_system": "H596", "assay": "Proliferation assay, 50% growth inhibitory concentration", "type": "cell-based", "settings": "Homo sapiens, NCI-H596, 24 h; H596, p53 mutated; after 1 day of exposure", "protocol": "as §1, §2"}, "HeLa (p53 inactivated)": {"test_system": "HeLa (p53 inactivated)", "assay": "Proliferation assay, 50% growth inhibitory concentration", "type": "cell-based", "settings": "Homo sapiens, 24 h, after 1 day of exposure", "protocol": "as §1, §2"}, "[1]": {"test_system": "p53, p21, MDM2, Bcl-2, Cyclin A, Cyclin D, Cdc 2, Bcl-XL, Bax, Rb and Cdk-2", "assay": "Western blot of proteins of apoptotic pathways in H460 whole-cell extracts", "type": "cell-based, human", "settings": "0.05 μg/ml for 24 hr", "protocol": "Cells were grown in 6-cm dishes, cultured, and treated as described above. To prepare the whole-cell lysates, the medium was removed and cells were washed twice with ice-cold Tris-buffered saline (TBS) (150 mM NaCl, 10 mM Tris; pH 7.6) and lysed with 0.5 ml of lysis buffer (10 mM Tris, 150 mM NaCl, 1% Triton X-100, 5 mM EDTA, 25 mM glycerphosphate, 1 mM phenylmethylsulphonyl fluoride (PMSF), 2 mM benzamidine, […], and 1 mM sodium orthovanadate) for 15 min. The lysed cells were then transferred to 1.5 ml microtubes, centrifuged at 15,000×g for 10 min at 4° C., and the supernatants collected mixed with Laemmli's sample buffer and subjected to western blot analysis as described elsewhere (Nare et al., 1994). Blots were probed with anti-p53 monoclonal antibody Bp53-12 (Santa Cruz Biotechnology, Inc.) and the immunocomplex was detected by the Enhanced Chemiluminescence kit according to the manufacturer's directions (Amersham).\nTo rule out the possibility that FZ and MZ have an effect on other proteins known to have a role in various apoptotic pathways, the inventors evaluated the effect of these drugs on a panel of such proteins. […] Specifically, the levels of these proteins were evaluated by Western blot analyses before and after exposure to 0.05 μg/ml FZ or MZ for 24 hr using whole-cell extracts. […] The protein level of the phosphorylated form of Rb also remained unchanged after treatment."}, "p21/WAF1 transcript": {"test_system": "p21/WAF1 transcript", "assay": "Northern blot analysis in H460 cells", "type": "cell-based, human", "settings": "at the time the p53 level peaked", "protocol": "(§3) Total RNA was isolated from the subconfluent cultures using the guanidinium thisocyanate method (Lacey, 1988). After this 20 μg of the RNA was electrophoresed in a denaturing 1.2% agarose/morpholinepropanesulfonic acid (MOPS)-formaldehyde gel, transferred onto a nitrocellulose membrane, and hybridized to a ^32P-radiolabeled p53 cDNA probe, as described elsewhere (Lubiga and Prichard, 1990). The ^32P-labeled probes were generated using random primers (>8×10^8 cpm/μg). Blots were washed at 65° C. in 2× standard saline citrate (SSC) for 30 min and then washed twice at 60° C. in 0.1% sodium dodecyl sulfate (SDS) and 0.1×SSC. The cDNA probes used were 1.2-kb human p53 cDNA and an 800-bp fragment of human p21 cDNA.\n(§4) Cell extracts were prepared from H460 cells exposed to 0.05 μg/ml FZ or MZ for various durations (1 to 24 hr). The effect of FZ and MZ on the nuclear accumulation of p53 appeared to be gradual and was not significant within the first hour of exposure. […] The appearance of p53 in response to drug treatment also coincided with the initiation of apoptosis, which was detectable by 24 hr, as well as shown earlier by TdT FACS analysis. […] Total RNA was extracted and […] was used for the analysis. p53 protein was detected by immunoblot analysis."}, "p53 mRNA": {"test_system": "p53 mRNA", "assay": "Northern blot analysis in H460 cells", "type": "cell-based, human", "settings": "0.05 μg/ml, 24 hr", "protocol": "as §3, §4"}}}
{"smiles": "COC(=O)Nc1nc2ccc(Sc3ccccc3)cc2[nH]1", "note": "[Fenbendazole, methy 5-(phenylthio)-2-benzimidazole-2-carbamate]", "values": [{"measurement": "IC50", "setting": "A549", "value": 123, "unit": "nM"}, {"measurement": "IC50", "setting": "H322", "value": 816, "unit": "nM"}, {"measurement": "IC50", "setting": "H358", "value": 654, "unit": "nM"}, {"measurement": "IC50", "setting": "H460", "value": 152, "unit": "nM"}, {"measurement": "IC50", "setting": "H596", "value": 643, "unit": "nM"}, {"measurement": "IC50", "setting": "HeLa (p53 inactivated)", "value": 853, "unit": "nM"}, {"measurement": "levels of Bcl-2, Cyclin A, Cyclin D, Cdc 2, Bcl-XL, Bax, Rb and Cdk-2", "setting": "[1]", "value": "no changes"}, {"measurement": "levels of nuclear p53, p21 and MDM2", "setting": "[1]", "value": "enhanced"}, {"measurement": "level of the p21/WAF1 transcript", "setting": "p21/WAF1 transcript", "value": "significantly increased"}, {"measurement": "p53 mRNA levels", "setting": "p53 mRNA", "value": "no significant changes"}]}
{"smiles": "COC(=O)Nc1nc2ccc(C(=O)c3ccccc3)cc2[nH]1", "note": "[Mebendazole, Methyl 5-benzoylbenzimidazole-2-carbamate]", "values": [{"measurement": "IC50", "setting": "A549", "value": 130, "unit": "nM"}, {"measurement": "IC50", "setting": "H322", "value": 871, "unit": "nM"}, {"measurement": "IC50", "setting": "H358", "value": 893, "unit": "nM"}, {"measurement": "IC50", "setting": "H460", "value": 106, "unit": "nM"}, {"measurement": "IC50", "setting": "H596", "value": 601, "unit": "nM"}, {"measurement": "IC50", "setting": "HeLa (p53 inactivated)", "value": 400, "unit": "nM"}, {"measurement": "levels of Bcl-2, Cyclin A, Cyclin D, Cdc 2, Bcl-XL, Bax, Rb and Cdk-2", "setting": "[1]", "value": "no changes"}, {"measurement": "levels of nuclear p53, p21 and MDM2", "setting": "[1]", "value": "enhanced"}, {"measurement": "level of the p21/WAF1 transcript", "setting": "p21/WAF1 transcript", "value": "significantly increased"}, {"measurement": "p53 mRNA levels", "setting": "p53 mRNA", "value": "no significant changes"}]}
